Patent US20090325959A1 (priority 2008, published 2009)
Read-outs that look alike come from different tables or passages of the source.

Legend:
[1] = molecular target: T1, ROCK1 (Homo sapiens, UniProt Q13464); assay: Rho kinase inhibition assay (IMAP fluorescence polarization), ROCK1; format: biochemical;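 further: kinase reaction run 60 min at room temperature, then phosphorylated substrate captured on IMAP beads for 30 min, with fluorescence polarization read in mP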
T1 construct: purchased Upstate/Chemicon 14-601
T1 sequence (Q13464 17-535 limits assumed): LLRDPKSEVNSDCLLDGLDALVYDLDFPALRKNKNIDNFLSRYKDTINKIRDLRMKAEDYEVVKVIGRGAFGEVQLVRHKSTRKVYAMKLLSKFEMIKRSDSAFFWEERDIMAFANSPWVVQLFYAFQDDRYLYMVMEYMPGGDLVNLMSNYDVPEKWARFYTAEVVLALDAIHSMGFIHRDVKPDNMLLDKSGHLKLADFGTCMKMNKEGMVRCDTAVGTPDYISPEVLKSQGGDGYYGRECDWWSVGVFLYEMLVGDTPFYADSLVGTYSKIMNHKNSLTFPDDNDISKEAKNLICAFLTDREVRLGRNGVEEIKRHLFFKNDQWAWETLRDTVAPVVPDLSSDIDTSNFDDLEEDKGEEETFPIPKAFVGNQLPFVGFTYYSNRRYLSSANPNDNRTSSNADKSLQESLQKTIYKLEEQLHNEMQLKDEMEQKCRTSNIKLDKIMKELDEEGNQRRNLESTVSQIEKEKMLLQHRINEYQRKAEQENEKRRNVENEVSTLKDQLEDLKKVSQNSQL
Protocol: Following the pre-incubation, 10 μM ATP was added to initiate the reaction. After 60 minutes at room temperature, Molecular Devices IMAP™ binding solution was added to bind phosphorylated substrate. After 30 minutes of incubation in the presence of the IMAP™ beads, the fluorescence polarization was read and the ratio was reported as mP. IC50 values for compounds and EC50 values for ATP were calculated using the Prism software from Graphpad.

[2] = system: ova-sensitized, ova-challenged mice; assay: Prevention of airway hyperreactivity (Penh, methacholine) in mouse ovalbumin sensitization model; format: in vivo
[3] = molecular target: T2, Akt3 human enzyme (Homo sapiens, UniProt Q9Y243); assay: Akt3 inhibition assay (IMAP FP); format: biochemical;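 further: kinase reaction run 60 min at room temperature after 30 µM ATP start, phosphorylated substrate captured on IMAP beads and read as fluorescence polarization (mP)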
T2 construct: purchased Upstate Chemicon 14-502
T2 sequence (Q9Y243 whole entry): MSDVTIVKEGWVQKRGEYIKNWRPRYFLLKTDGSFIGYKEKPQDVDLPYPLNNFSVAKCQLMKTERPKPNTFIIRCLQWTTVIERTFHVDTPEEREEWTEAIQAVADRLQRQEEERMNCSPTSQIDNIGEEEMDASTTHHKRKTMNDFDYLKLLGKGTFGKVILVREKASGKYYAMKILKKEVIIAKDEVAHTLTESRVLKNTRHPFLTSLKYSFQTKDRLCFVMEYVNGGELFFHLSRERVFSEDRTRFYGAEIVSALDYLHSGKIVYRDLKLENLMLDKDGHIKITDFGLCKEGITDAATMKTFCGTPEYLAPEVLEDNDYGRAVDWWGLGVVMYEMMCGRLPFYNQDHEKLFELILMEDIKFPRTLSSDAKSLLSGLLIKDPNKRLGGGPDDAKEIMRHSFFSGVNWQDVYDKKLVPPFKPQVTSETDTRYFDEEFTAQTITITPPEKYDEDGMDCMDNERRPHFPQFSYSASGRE

[4] = molecular target: T3, ERK2 (Homo sapiens, UniProt P28482); assay: Kinase panel screen (KinaseProfiler), ERK2; format: biochemical
T3 construct: purchased Upstate, Millipore Bioscience Division (KinaseProfiler service)
T3 sequence (P28482 whole entry): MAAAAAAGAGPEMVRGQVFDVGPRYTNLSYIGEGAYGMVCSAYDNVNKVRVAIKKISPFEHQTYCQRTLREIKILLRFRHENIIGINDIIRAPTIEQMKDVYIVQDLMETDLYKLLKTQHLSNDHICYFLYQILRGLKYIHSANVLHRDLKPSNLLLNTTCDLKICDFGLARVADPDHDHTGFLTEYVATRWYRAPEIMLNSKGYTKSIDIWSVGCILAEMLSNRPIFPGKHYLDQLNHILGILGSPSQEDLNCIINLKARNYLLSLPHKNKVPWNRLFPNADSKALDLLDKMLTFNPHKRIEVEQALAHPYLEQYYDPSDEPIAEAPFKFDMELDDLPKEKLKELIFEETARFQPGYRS
Protocol: (§1) Compounds of Formulae I and II were examined for activity against a selected panel of kinases using the KinaseProfiler™ enzyme profiling services (Upstate, Millipore Bioscience Division). Percent kinase activity at 10 μM and 1 μM test compound and 10 μM ATP was determined against 40 wild-type recombinant human kinases according to Upstate's standard protocol: ASK1, BTK, CSK, c-RAF, GCK, GSK3β, IKKα, IKKβ, IRAK1, IRAK4, JNK1α1, JNK2α2, JNK3, ERK1, ERK2, MAPKAP-K2, MAPKAP-K3, MEK1, MKK4, MKK6, MKK7β, Mnk2, MSK1, PAK3, PDK1, PRAK, ROCK1, Rsk2, SAPK2a, SAPK2b, SAPK3, SAPK4, SRPK1, SRPK2, Syk, TAK1, TBK1, PI3-Kβ, PI3-Kγ, PI3-Kδ.

[5] = molecular target: T4, GCK (Homo sapiens, UniProt Q12851); assay: Kinase panel screen (KinaseProfiler), GCK; format: biochemical
T4 construct: purchased Upstate, Millipore Bioscience Division (KinaseProfiler service)
T4 sequence (Q12851 1-820): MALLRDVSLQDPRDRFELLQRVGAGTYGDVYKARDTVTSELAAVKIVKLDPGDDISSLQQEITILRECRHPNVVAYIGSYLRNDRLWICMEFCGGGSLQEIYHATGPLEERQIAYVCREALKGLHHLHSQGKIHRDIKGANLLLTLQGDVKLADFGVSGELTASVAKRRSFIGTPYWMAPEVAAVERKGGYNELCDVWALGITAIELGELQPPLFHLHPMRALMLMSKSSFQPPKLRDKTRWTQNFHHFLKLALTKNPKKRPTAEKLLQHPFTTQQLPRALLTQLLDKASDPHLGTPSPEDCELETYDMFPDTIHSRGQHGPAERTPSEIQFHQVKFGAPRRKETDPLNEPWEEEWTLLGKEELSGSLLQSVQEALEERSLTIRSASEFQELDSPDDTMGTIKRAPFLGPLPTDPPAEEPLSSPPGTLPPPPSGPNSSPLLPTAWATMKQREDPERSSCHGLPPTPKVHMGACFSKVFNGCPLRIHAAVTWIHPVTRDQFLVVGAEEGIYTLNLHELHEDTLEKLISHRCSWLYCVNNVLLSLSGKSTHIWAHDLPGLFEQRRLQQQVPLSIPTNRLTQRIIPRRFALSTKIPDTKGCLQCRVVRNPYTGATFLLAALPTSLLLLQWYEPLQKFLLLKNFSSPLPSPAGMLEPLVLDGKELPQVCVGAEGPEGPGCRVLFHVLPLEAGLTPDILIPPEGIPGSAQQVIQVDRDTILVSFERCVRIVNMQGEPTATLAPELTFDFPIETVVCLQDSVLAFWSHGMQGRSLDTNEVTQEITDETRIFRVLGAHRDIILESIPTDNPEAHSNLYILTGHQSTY
Protocol: as §1

[6] = molecular target: T5, IRAK4 (Homo sapiens, UniProt Q9NWZ3); assay: Kinase panel screen (KinaseProfiler), IRAK4; format: biochemical; conditions: 10 μM ATP
T5 construct: purchased Upstate, Millipore Bioscience Division (KinaseProfiler service)
T5 sequence (Q9NWZ3 1-460): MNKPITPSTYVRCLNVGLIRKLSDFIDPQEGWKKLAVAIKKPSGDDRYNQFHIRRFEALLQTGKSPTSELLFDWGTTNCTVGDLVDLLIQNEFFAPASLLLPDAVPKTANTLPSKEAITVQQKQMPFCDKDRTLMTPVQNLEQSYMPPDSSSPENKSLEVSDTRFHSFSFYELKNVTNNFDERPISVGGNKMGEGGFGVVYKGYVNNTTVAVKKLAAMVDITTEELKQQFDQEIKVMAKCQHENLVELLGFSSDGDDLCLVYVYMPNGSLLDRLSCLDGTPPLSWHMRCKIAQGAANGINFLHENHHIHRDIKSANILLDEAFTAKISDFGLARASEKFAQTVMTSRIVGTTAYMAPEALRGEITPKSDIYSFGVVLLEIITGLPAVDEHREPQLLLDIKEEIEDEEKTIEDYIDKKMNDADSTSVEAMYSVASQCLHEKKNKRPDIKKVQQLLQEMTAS
Protocol: as §1

[7] = Compound plasma concentrations in unsensitized mice at 15 min post administration; format: in vivo; conditions: mouse, 15 μmol/kg; mean compound plasma concentration in mice at 15 minutes post oral administration; read-out: Mouse Oral PK
[8] = molecular target: T6, ERK1 (Homo sapiens, UniProt P27361); assay: Kinase panel screen (KinaseProfiler), ERK1; format: biochemical
T6 construct: purchased Upstate, Millipore Bioscience Division (KinaseProfiler service)
T6 sequence (P27361 whole entry): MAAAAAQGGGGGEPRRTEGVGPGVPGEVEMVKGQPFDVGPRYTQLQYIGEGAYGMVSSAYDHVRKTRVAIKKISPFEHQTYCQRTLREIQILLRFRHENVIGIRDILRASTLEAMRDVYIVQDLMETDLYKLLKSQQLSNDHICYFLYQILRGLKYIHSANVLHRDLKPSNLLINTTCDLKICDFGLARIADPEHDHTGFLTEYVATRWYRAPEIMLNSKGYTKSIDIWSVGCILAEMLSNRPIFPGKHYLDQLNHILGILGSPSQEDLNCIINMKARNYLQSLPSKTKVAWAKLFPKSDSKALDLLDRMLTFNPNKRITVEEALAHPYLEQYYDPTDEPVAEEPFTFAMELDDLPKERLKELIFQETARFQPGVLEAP
Protocol: as §1

NC(=O)Cn1ccc2cc(CN3CC[C@@H](Nc4cccc5cnccc45)C3)ccc21 [Compound 2.059, (R)-2-(5-((3-(isoquinolin-5-ylamino)pyrrolidin-1-yl)methyl)-1H-indol-1-yl)acetamide]
Ki ([1]; Avg, 10 μM ATP): 3.9 nM | Ki ([1]; average Ki): 3.9 nM | log10AUC (Penh) ([2]; 0.5 μmol/kg/intratracheal, days 27 to 31): 1.9979 | airway hyperreactivity ([2]; intratracheal once a day during days 27 to 31): prevention of airway hyperreactivity | Ki ([3]; 30 μM ATP, Ki=IC50/(1+([ATP Challenge]/EC50 ATP)), read-out: Akt3 Ki, Avg): 120 nM | Ki ([3]; average Ki, read-out: Akt3 Ki): 120 nM | ERK2 Percent inhibition, 1 μM [4]: 56% | ERK2 Percent inhibition, 10 μM [4]: 12% | inhibition at 1 µM ([4]; 1 μM, read-out: ERK2 inhibited): ~50% | GCK Percent inhibition, 1 μM [5]: 75% | activity at 10 µM ([5]; 10 μM test compound, 10 μM ATP, read-out: GCK Percent inhibition, 10 μM): 34% | activity at 1 µM ([6]; 1 μM test compound, read-out: IRAK4 Percent inhibition, 1 μM): 63% | activity at 10 µM ([6]; 10 μM test compound, read-out: IRAK4 Percent inhibition, 10 μM): 22% | concentration at 15 min [7]: 90 nM | activity at 1 µM ([8]; 1 μM test compound, 10 μM ATP, read-out: ERK1 Percent inhibition, 1 μM): 37% | inhibition at 1 µM ([8]; 1 μM, read-out: ERK1 inhibited): ~50% | activity at 10 µM ([8]; 10 μM test compound, 10 μM ATP, read-out: ERK1 Percent inhibition, 10 μM): 4%
